# According to patent publication US20180296623A1, “PHARMACEUTICAL COMPOSITION FOR PROMOTING PERIODONTAL TISSUE GROWTH AND FOR PREVENTION AND TREATMENT OF PERIODONTITIS, CONTAINING MAGNOLIA FLOWER EXTRACT, FRACTION THEREOF OR COMPOUND ISOLATED THEREFROM AS ACTIVE INGREDIENT” (OKINAWA RESEARCH CENTER CO., LTD., priority 2015, published 2018):
# Test system: dental root or periodontal tissue
# Test: Transplantation of mouse molar embedded in agarose beads containing fargesin into host mouse kidney capsule; micro CT
# Format: in vivo, C57BL/6 mouse
# Details: beads soaked in 80 μm fargesin in PBS, molar of 5-day-old mouse grafted into kidney capsule of 8-week-old host mouse, 3 weeks, vs PBS control
# Description: The following experiment was performed in order to investigate the promoting effect of the fargesin isolated from the Magnolia flower extract on the growth of dental root or periodontal tissue.
# Particularly, the fargesin obtained in Example 1 was diluted in PBS (Dainippon Pharmaceuticals Inc., Japan) at the final concentration of 80 μm, and four agarose beads (Affi-Gel Blue Gel, #153-7301, Bio-Rad Laboratories Inc., Japan) were washed with PBS, followed by reaction for at least 60 minutes to allow the fargesin to be absorbed in those beads. For the control, 4 other beads were reacted only with PBS. A 5-day-old C57BL/6 mouse (Sankyo Labo Service Corporation, Japan) was sacrificed, from which molars were extracted from the lower jaws. Dental pulp of the extracted molar was embedded in the agarose beads containing fargesin. For the control, dental pulp of the extracted molar was embedded in the agarose beads containing PBS alone. The agarose beads were each grafted into capsules of the 8-week-old C57BL/6 host mouse (female, Sankyo Labo Service Corporation, Japan) kidneys. The host mice were raised in the conditions of 12 h/12 h light and dark cycle, room temperature, and free feeding. 3 weeks later, the mice were sacrificed, from which the kidneys were extracted. Then, the teeth were observed. The 3D image of the teeth was taken by micro CT (Rigaku R_mCT2).
smiles,measurement,value
COc1ccc([C@@H]2OC[C@H]3[C@@H]2CO[C@@H]3c2ccc3c(c2)OCO3)cc1OC [fargesin],formation of alveolar bone around the grafted tooth,observed
same,growth of dental root,significant
